Test results published in PubChem BioAssay AID1919002 (Molecular Pharmacology Branch, DTP, NCI, 2023).

Test system: 743489-274-T-PDC complex spheroid growth
Assay: Anticancer human tumor 743489-274-T-PDC patient-derived renal cell carcinoma cell line growth inhibition [AhR]
Conditions: for IC50: curve of first compound; for viability, T/C: stronger effect = lower value
In short: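 Complex tumor spheroids co-cultured with HUVEC and human MSC stroma; AhR antagonists tested in combination with standard-of-care and investigational agents. Top concentration at or near clinical Cmax (else 10 microM), half-log dilutions; growth expressed as percent test/control.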
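Further: spheroids exposed to agents for 7 days before readout.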
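Wherever viability, T/C is given: 100% = DMSO vehicle control wells.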

**Q.** CCN(c1cc(-c2ccc(CN3CCOCC3)cc2)cc(C(=O)NCc2c(C)cc(C)[nH]c2=O)c1C)C1CCOCC1 + Cc1cncc(-c2nc(NCCc3c[nH]c4ccccc34)c3ncn(C(C)C)c3n2)c1 was tested. Which IC50 (second compound 0.1 µM) did it give?
**A.** > 3000 nM

**Q.** And the IC50 (second compound 0.316 µM)?
**A.** > 3000 nM

**Q.** And the IC50 (second compound 1 µM)?
**A.** > 3000 nM

**Q.** And the IC50 (second compound 3.16 µM)?
**A.** > 3000 nM

**Q.** And the IC50 (second compound 10 µM)?
**A.** > 3000 nM

**Q.** And the viability, T/C (second compound 0.1 µM, first compound 0.00949 µM)?
**A.** 102%

**Q.** What about the viability, T/C (second compound 0.1 µM, first compound 0.03 µM) of the same molecule?
**A.** 102%

**Q.** And the viability, T/C (second compound 0.1 µM, first compound 0.0949 µM)?
**A.** 99.9%

**Q.** And the viability, T/C (second compound 0.1 µM, first compound 0.3 µM)?
**A.** 91.3%

**Q.** What about the viability, T/C (second compound 0.1 µM, first compound 0.949 µM) of the same molecule?
**A.** 92.7%

**Q.** And the viability, T/C (second compound 0.1 µM, first compound 3 µM)?
**A.** 94.4%

**Q.** And the viability, T/C (second compound 0.316 µM, first compound 0.00949 µM)?
**A.** 94.8%

**Q.** And the viability, T/C (second compound 0.316 µM, first compound 0.03 µM)?
**A.** 104%

**Q.** What about the viability, T/C (second compound 0.316 µM, first compound 0.0949 µM) of the same molecule?
**A.** 93.1%

**Q.** And the viability, T/C (second compound 0.316 µM, first compound 0.3 µM)?
**A.** 88.1%

**Q.** And the viability, T/C (second compound 0.316 µM, first compound 0.949 µM)?
**A.** 85.9%

**Q.** What about the viability, T/C (second compound 0.316 µM, first compound 3 µM) of the same molecule?
**A.** 94%

**Q.** What about the viability, T/C (second compound 1 µM, first compound 0.00949 µM) of the same molecule?
**A.** 99.8%

**Q.** What about the viability, T/C (second compound 1 µM, first compound 0.03 µM) of the same molecule?
**A.** 97.6%

**Q.** What about the viability, T/C (second compound 1 µM, first compound 0.0949 µM) of the same molecule?
**A.** 95.3%

**Q.** And the viability, T/C (second compound 1 µM, first compound 0.3 µM)?
**A.** 93%

**Q.** What about the viability, T/C (second compound 1 µM, first compound 0.949 µM) of the same molecule?
**A.** 104%

**Q.** What about the viability, T/C (second compound 1 µM, first compound 3 µM) of the same molecule?
**A.** 101%

**Q.** And the viability, T/C (second compound 3.16 µM, first compound 0.00949 µM)?
**A.** 105%

**Q.** What about the viability, T/C (second compound 3.16 µM, first compound 0.03 µM) of the same molecule?
**A.** 114%

**Q.** And the viability, T/C (second compound 3.16 µM, first compound 0.0949 µM)?
**A.** 102%

**Q.** And the viability, T/C (second compound 3.16 µM, first compound 0.3 µM)?
**A.** 104%

**Q.** And the viability, T/C (second compound 3.16 µM, first compound 0.949 µM)?
**A.** 102%

**Q.** And the viability, T/C (second compound 3.16 µM, first compound 3 µM)?
**A.** 103%

**Q.** And the viability, T/C (second compound 10 µM, first compound 0.00949 µM)?
**A.** 122%

**Q.** What about the viability, T/C (second compound 10 µM, first compound 0.03 µM) of the same molecule?
**A.** 119%

**Q.** And the viability, T/C (second compound 10 µM, first compound 0.0949 µM)?
**A.** 122%

**Q.** And the viability, T/C (second compound 10 µM, first compound 0.3 µM)?
**A.** 128%

**Q.** And the viability, T/C (second compound 10 µM, first compound 0.949 µM)?
**A.** 127%

**Q.** What about the viability, T/C (second compound 10 µM, first compound 3 µM) of the same molecule?
**A.** 122%

**Q.** How did the IC50 (second compound 0.1 µM) turn out when Cn1ncnc1C1c2n[nH]c(=O)c3cc(F)cc(c23)NC1c1ccc(F)cc1 (stereo not given) + Cc1cncc(-c2nc(NCCc3c[nH]c4ccccc34)c3ncn(C(C)C)c3n2)c1 was run?
**A.** > 100 nM

**Q.** And the IC50 (second compound 0.316 µM)?
**A.** > 100 nM

**Q.** And the IC50 (second compound 1 µM)?
**A.** > 100 nM

**Q.** And the IC50 (second compound 3.16 µM)?
**A.** > 100 nM

**Q.** And the IC50 (second compound 10 µM)?
**A.** > 100 nM

**Q.** And the viability, T/C (second compound 0.1 µM, first compound 0.000316 µM)?
**A.** 95.5%

**Q.** What about the viability, T/C (second compound 0.1 µM, first compound 0.001 µM) of the same molecule?
**A.** 104%

**Q.** What about the viability, T/C (second compound 0.1 µM, first compound 0.00316 µM) of the same molecule?
**A.** 90.8%

**Q.** And the viability, T/C (second compound 0.1 µM, first compound 0.01 µM)?
**A.** 87.9%

**Q.** And the viability, T/C (second compound 0.1 µM, first compound 0.0316 µM)?
**A.** 89.6%

**Q.** And the viability, T/C (second compound 0.1 µM, first compound 0.1 µM)?
**A.** 98.8%

**Q.** What about the viability, T/C (second compound 0.316 µM, first compound 0.000316 µM) of the same molecule?
**A.** 88.8%

**Q.** And the viability, T/C (second compound 0.316 µM, first compound 0.001 µM)?
**A.** 91.8%

**Q.** And the viability, T/C (second compound 0.316 µM, first compound 0.00316 µM)?
**A.** 96.1%

**Q.** What about the viability, T/C (second compound 0.316 µM, first compound 0.01 µM) of the same molecule?
**A.** 96.2%

**Q.** What about the viability, T/C (second compound 0.316 µM, first compound 0.0316 µM) of the same molecule?
**A.** 93.3%

**Q.** And the viability, T/C (second compound 0.316 µM, first compound 0.1 µM)?
**A.** 95.7%

**Q.** What about the viability, T/C (second compound 1 µM, first compound 0.000316 µM) of the same molecule?
**A.** 103%

**Q.** What about the viability, T/C (second compound 1 µM, first compound 0.001 µM) of the same molecule?
**A.** 96%

**Q.** What about the viability, T/C (second compound 1 µM, first compound 0.00316 µM) of the same molecule?
**A.** 97%

**Q.** And the viability, T/C (second compound 1 µM, first compound 0.01 µM)?
**A.** 101%

**Q.** And the viability, T/C (second compound 1 µM, first compound 0.0316 µM)?
**A.** 96.7%

**Q.** And the viability, T/C (second compound 1 µM, first compound 0.1 µM)?
**A.** 88.2%

**Q.** What about the viability, T/C (second compound 3.16 µM, first compound 0.000316 µM) of the same molecule?
**A.** 121%

**Q.** And the viability, T/C (second compound 3.16 µM, first compound 0.001 µM)?
**A.** 102%

**Q.** And the viability, T/C (second compound 3.16 µM, first compound 0.00316 µM)?
**A.** 99.2%

**Q.** What about the viability, T/C (second compound 3.16 µM, first compound 0.01 µM) of the same molecule?
**A.** 114%

**Q.** What about the viability, T/C (second compound 3.16 µM, first compound 0.0316 µM) of the same molecule?
**A.** 99.3%

**Q.** And the viability, T/C (second compound 3.16 µM, first compound 0.1 µM)?
**A.** 94.5%

**Q.** And the viability, T/C (second compound 10 µM, first compound 0.000316 µM)?
**A.** 128%

**Q.** What about the viability, T/C (second compound 10 µM, first compound 0.001 µM) of the same molecule?
**A.** 117%

**Q.** And the viability, T/C (second compound 10 µM, first compound 0.00316 µM)?
**A.** 139%

**Q.** And the viability, T/C (second compound 10 µM, first compound 0.01 µM)?
**A.** 121%

**Q.** And the viability, T/C (second compound 10 µM, first compound 0.0316 µM)?
**A.** 111%

**Q.** What about the viability, T/C (second compound 10 µM, first compound 0.1 µM) of the same molecule?
**A.** 131%
